Assay results from US5059627A, “Nerve growth factor secretion inducing composition” (Takeda Chemical Industries, Ltd., priority 1989, dated 1991).

Assays:
in vivo = conditions: mouse, po
mice = conditions: po, groups of 10

Cc1cc(O)c(C)c(C)c1O [2,3,5-Trimethyl-1,4-hydroquinone, 2,3,5-trimethyl-1,4-hydroquinone]
LD50 (in vivo): > 500 mg/kg

COc1c(O)c(C)c(CCCCCCCCCCO)c(O)c1OC [6-(10-hydroxydecyl)-2,3-dimethoxy-5-methyl-1,4-hydroquinone]
LD50 (in vivo): > 1000 mg/kg

COC1=C(OC)C(=O)C(C/C=C(\C)CCC=C(C)C)=C(C)C1=O [Ubiquinone-2, ubiquinone-2]
LD50 (in vivo): > 500 mg/kg

CC1=CC(=O)c2ccccc2C1=O [Vitamin K0, vitamin K0]
LD50 (mice): 500 mg/kg
